According to US20140303373A1, “CRYSTALLINE FORM OF TIOTROPIUM BROMIDE” (CERBIOS-PHARMA SA, priority 2013, published 2014):

Columns and labels:
[1] = accelerated stability study, related substances by HPLC (Eur. Ph. 07/2010:2420); type: physicochemical
Protocol: The tiotropium bromide accelerated stability studies were performed storing the drug substance, prepared as described in the previous examples, at 40±2° C./75±5% RH. Stability was evaluated in dark glass vial with screw cap. The frequency of the analyses performed has included five test points: 0, 7 days, 1, 3, and 6 months. Related substances amount of tiotropium bromide was measured by HPLC, following the Eur. Ph. procedure (07/2010:2420).

[2] = stability at 25° C./60% relative humidity (impurity profile and X-ray spectrum); type: physicochemical

## C[N+]1(C)C2CC(OC(=O)C(O)(c3cccs3)c3cccs3)CC1[C@@H]1O[C@H]21.[Br-] (some centres unmarked) [Tiotropium Bromide]
[1]; 40° C./75% RH
  impurity profile and X-ray spectrum on storage: did not change for at least six months
[1]; 40±2° C./75±5% RH, 7 days
  Related substances: Impurity A, RRT 0.40-0.47: 0.02
  Related substances: Impurity B, RRT 0.79-0.84: 0.04
  Related substances: unnamed, RRT 0.98: 0.03
  Related substances: unnamed, RRT 1.21-1.35: 0.01
  Related substances: unnamed, RRT 1.22-1.37: 0.02
  Sum of impurities: 0.12
  Tiotropium Bromide, RRT 1.00 (HPLC): 99.88
[1]; 40±2° C./75±5% RH, 30 d
  Related substances: Impurity A, RRT 0.40-0.47: 0.02
  Related substances: Impurity B, RRT 0.79-0.84: 0.04
  Related substances: unnamed, RRT 0.98: 0.03
  Related substances: unnamed, RRT 1.22-1.37: 0.03
  Sum of impurities: 0.12
  Tiotropium Bromide, RRT 1.00 (HPLC): 99.88
[1]; 40±2° C./75±5% RH, 90 d
  Related substances: Impurity A, RRT 0.40-0.47: 0.02
  Related substances: Impurity B, RRT 0.79-0.84: 0.04
  Related substances: Impurity E, RRT 1.73: 0.01
  Related substances: unnamed, RRT 0.39: 0.02
  Related substances: unnamed, RRT 0.98: 0.02
  Related substances: unnamed, RRT 1.21-1.35: 0.02
  Related substances: unnamed, RRT 1.22-1.37: 0.03
  Related substances: unnamed, RRT 1.50-1.53: 0.01
  Sum of impurities: 0.17
  Tiotropium Bromide, RRT 1.00 (HPLC): 99.83
[1]; 40±2° C./75±5% RH, 180 d
  Related substances: Impurity A, RRT 0.40-0.47: 0.02
  Related substances: Impurity B, RRT 0.79-0.84: 0.04
  Related substances: unnamed, RRT 0.98: 0.02
  Related substances: unnamed, RRT 1.21-1.35: 0.02
  Related substances: unnamed, RRT 1.22-1.37: 0.03
  Related substances: unnamed, RRT 1.50-1.53: 0.01
  Sum of impurities: 0.14
  Tiotropium Bromide, RRT 1.00 (HPLC): 99.86
[1]; 40±2° C./75±5% RH, Time 0
  Related substances: Impurity A, RRT 0.40-0.47: 0.02
  Related substances: Impurity B, RRT 0.79-0.84: 0.04
  Related substances: unnamed, RRT 0.98: 0.03
  Related substances: unnamed, RRT 1.21-1.35: 0.01
  Related substances: unnamed, RRT 1.22-1.37: 0.02
  Related substances: unnamed, RRT 1.50-1.53: 0.01
  Sum of impurities: 0.13
  Tiotropium Bromide, RRT 1.00 (HPLC): 99.87
[2]
  impurity profile and X-ray spectrum on storage: did not change for at least six months
